Active and inactive are the calls of the source. No cut-off for these calls is given here.

The target of experiment [1] is Envelope glycoprotein gp160 (Human immunodeficiency virus type 1 group M subtype B (isolate HXB2)(HIV-1)) (UniProt P04578). Briefly: Tested for inhibition of HIV CD4-gp120 interaction in an ELISA based binding assay using recombinant gp120 and soluble CD4 up to a concentration of 350 uM; No inhibition.
Experiment [2] shares this target. Kind of experiment: Tested for inhibition of HIV CD4-gp120 interaction in an ELISA based binding assay using recombinant gp120 and soluble CD4 up to a concentration of 550 uM; No inhibition. (In general: In an ELISA, binding on a coated surface is turned into a signal by an enzyme label.)
Experiment [3] concerns the target Envelope glycoprotein gp160 (Human immunodeficiency virus type 1 group M subtype B (isolate HXB2)(HIV-1), UniProt P04578). Briefly: Tested for inhibition of HIV gp120-CD4 interaction in an ELISA based binding assay using recombinant CD4-gp120.

Consider `CC(C)C[C@H](NC(=O)[C@H](Cc1ccccc1)NC(=O)[C@H]1/C(=C/CO)O[C@@H]2CC(=O)N21)C(=O)OCc1ccccc1`, for which, in experiment [1], the inhibition result is “inactive”.

For `COC(=O)[C@H](Cc1ccccc1)NC(=O)[C@@H]1N2C(=O)[C@@H](N)[C@H]2SC1(C)C`, the inhibition entry in experiment [1] is “inactive”.

As to `COC(=O)[C@H](Cc1ccccc1)NC(=O)[C@H]1/C(=C/CO)O[C@@H]2CC(=O)N21`, the inhibition entry in experiment [2] is “inactive”.

As for `COC(=O)C(=O)N1CCC[C@@H]1C(=O)N[C@H](Cc1ccccc1)C(=O)OCc1ccccc1`, the IC50 (commonly the midpoint of a concentration-inhibition curve) in experiment [3] was determined as 250 µM.

These data come from ChEMBL document CHEMBL1126407, “-Lactam peptides as potential inhibitors of the HIV gp120-CD4 interaction” (Bioorg Med Chem Lett, 1992).
